Source: patent US20260193264A1, “BENZOYPARAZINE PYRAZINES AND THEIR USES” (FOGHORN THERAPEUTICS INC., priority 2022, published 2026)

How the values were obtained:
[1] = molecular target: T1, HiBit-BRG1 fusion protein in stable HeLa cell line expressing HiBit-BRG1 and LgBit (Homo sapiens, UniProt P51532); test: HiBiT-BRG1 cell-based degradation assay (Nano-Glo HiBiT, 24 h); details: HeLa HiBit-BRG1/LgBit cells; for DC50: read-out: BRMG1 HiBit Degradation IC50; for Dmax: top dose 30 μM, read-out: BRG1 HiBit Degradation Maximum (%)
T1 construct: expressed in transfected cells
T1 sequence (P51532 whole entry, the tested form may be a part): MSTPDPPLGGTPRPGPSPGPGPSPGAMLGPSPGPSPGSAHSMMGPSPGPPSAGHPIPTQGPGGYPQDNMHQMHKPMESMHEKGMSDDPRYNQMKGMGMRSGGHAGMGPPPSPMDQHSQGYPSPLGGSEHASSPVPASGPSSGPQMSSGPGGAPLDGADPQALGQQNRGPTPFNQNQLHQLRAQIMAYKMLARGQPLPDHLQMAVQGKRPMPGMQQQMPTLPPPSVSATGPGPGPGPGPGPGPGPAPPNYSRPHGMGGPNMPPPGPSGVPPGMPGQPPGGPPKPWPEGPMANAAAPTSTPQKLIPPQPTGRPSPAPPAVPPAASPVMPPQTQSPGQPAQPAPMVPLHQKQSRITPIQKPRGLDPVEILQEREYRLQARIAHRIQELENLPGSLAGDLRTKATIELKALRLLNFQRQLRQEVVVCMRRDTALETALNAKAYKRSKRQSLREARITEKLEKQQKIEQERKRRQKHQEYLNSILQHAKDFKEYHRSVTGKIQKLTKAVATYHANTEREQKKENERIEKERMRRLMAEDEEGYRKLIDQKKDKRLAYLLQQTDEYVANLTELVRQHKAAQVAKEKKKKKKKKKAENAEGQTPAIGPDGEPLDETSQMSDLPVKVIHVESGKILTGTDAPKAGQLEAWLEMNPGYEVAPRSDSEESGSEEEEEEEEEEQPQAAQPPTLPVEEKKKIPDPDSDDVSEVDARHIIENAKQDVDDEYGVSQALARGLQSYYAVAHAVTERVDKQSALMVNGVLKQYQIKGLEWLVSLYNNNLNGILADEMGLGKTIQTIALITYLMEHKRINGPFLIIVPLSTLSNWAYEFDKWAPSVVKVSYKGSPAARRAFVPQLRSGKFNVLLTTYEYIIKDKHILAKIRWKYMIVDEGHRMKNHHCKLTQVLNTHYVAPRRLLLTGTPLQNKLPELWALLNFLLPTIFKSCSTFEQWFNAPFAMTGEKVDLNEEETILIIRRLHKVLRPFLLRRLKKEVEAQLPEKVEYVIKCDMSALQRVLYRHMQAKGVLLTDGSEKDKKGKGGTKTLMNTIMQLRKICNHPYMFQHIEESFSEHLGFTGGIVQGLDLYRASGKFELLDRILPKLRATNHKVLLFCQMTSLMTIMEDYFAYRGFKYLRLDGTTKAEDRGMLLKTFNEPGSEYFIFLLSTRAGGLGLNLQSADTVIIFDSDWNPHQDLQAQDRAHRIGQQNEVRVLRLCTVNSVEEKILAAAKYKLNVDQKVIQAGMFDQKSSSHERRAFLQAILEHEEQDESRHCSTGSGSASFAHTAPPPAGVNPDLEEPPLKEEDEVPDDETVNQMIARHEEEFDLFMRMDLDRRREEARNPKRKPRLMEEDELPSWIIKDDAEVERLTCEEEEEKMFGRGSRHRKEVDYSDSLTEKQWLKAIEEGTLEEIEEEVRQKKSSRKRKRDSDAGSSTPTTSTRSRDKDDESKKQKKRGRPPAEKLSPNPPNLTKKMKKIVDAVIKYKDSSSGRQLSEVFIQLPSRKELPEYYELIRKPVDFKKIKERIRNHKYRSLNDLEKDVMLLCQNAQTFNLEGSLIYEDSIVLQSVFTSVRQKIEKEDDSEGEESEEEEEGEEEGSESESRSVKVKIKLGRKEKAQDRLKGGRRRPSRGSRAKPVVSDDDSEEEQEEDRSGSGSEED
Procedure: Procedure: A stable HeLa cell line expressing HiBiT-BRM was generated. On day 0, 5000 cells were seeded in 40 μL of media into each well of 384-well cell culture plates. […] Subsequently plates were incubated for 24 h in a standard tissue culture incubator and equilibrated at room temperature for 15 minutes. Nano-Glo HiBiT Lytic Detection System (Promega N3050) reagent was freshly prepared and 20 ul was added to each well. Upon addition of this LgBit-containing reagent, the HiBiT and LgBiT proteins associate to form the luminescent NanoBiT luciferase. The plates were shaken for 10 minutes at room temperature and the bioluminescence read using an EnVision plate reader (PerkinElmer). For measurement of BRG1 degradation, a stable HeLa cell line expressing HiBit-BRG1 and LgBit was generated. The same protocol as above was then followed. The degradation % was calculated using the following formula: % degradation=100%−100%×(Lumsample−LumLC)/(LumHC−LumLC). DMSO treated cells are employed as High Control (HC) and 2 μM of a known BRM/BRG1 degrader standard treated cells are employed as Low Control (LC).

[2] = molecular target: T2, HiBiT-BRM fusion protein in stable HeLa cell line (Homo sapiens, UniProt P51531); test: HiBiT-BRM cell-based degradation assay (Nano-Glo HiBiT Lytic Detection, 24 h); parameters: DC50: scale not given here; details: HeLa HiBiT-BRM cells; for DC50: read-out: BRM HiBit Degradation IC50; for BRM HiBit Degradation Maximum (%): top dose 30 μM
T2 construct: expressed in transfected cells
T2 sequence (P51531 whole entry, the tested form may be a part): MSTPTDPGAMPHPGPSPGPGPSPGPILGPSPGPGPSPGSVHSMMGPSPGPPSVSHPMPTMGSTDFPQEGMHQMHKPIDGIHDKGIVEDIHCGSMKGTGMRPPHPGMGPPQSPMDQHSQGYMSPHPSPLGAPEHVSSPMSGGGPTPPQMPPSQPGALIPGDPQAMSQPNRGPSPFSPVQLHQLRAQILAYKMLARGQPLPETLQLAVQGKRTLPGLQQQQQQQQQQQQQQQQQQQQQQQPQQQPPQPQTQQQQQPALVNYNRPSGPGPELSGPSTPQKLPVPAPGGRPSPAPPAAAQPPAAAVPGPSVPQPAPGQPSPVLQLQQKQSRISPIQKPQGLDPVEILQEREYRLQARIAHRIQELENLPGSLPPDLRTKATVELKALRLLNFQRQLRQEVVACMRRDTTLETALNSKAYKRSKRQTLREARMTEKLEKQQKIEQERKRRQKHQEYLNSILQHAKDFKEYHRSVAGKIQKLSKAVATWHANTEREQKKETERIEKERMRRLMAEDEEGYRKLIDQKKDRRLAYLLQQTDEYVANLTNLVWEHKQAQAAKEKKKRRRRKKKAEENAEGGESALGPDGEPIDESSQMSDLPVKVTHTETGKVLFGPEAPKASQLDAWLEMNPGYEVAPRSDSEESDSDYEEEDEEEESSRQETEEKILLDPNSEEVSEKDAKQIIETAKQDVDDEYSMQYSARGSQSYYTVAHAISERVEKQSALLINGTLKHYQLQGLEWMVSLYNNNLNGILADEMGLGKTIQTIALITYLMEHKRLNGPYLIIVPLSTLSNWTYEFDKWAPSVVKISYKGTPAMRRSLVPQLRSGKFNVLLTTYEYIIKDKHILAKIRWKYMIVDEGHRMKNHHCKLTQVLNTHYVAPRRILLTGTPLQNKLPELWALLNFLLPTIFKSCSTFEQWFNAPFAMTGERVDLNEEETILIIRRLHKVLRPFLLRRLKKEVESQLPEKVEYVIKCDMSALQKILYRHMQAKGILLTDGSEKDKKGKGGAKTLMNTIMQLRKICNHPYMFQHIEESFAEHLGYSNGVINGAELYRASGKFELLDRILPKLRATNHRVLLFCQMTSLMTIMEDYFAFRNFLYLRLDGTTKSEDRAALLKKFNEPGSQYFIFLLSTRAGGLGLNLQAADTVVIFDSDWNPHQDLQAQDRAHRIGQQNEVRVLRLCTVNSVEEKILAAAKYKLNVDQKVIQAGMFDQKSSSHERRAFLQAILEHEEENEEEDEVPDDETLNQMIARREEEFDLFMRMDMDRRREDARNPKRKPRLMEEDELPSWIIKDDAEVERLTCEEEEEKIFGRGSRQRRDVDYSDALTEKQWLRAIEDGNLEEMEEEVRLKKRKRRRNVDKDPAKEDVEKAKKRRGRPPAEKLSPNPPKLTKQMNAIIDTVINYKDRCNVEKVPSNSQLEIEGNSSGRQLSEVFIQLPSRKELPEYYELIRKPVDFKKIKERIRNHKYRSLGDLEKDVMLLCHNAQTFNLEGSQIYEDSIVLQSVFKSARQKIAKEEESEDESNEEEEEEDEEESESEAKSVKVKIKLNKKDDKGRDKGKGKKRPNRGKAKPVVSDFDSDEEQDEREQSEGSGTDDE
Procedure: Procedure: A stable HeLa cell line expressing HiBiT-BRM was generated. On day 0, 5000 cells were seeded in 40 μL of media into each well of 384-well cell culture plates. On day 1, cells were treated with 120 nL DMSO or 120 nL of 3-fold serially DMSO-diluted compounds (10 points in duplicate with 30 μM as final top dose). Subsequently plates were incubated for 24 h in a standard tissue culture incubator and equilibrated at room temperature for 15 minutes. Nano-Glo HiBiT Lytic Detection System (Promega N3050) reagent was freshly prepared and 20 ul was added to each well. Upon addition of this LgBit-containing reagent, the HiBiT and LgBiT proteins associate to form the luminescent NanoBiT luciferase. The plates were shaken for 10 minutes at room temperature and the bioluminescence read using an EnVision plate reader (PerkinElmer).
The degradation % was calculated using the following formula: % degradation=100%−100%×(Lumsample−LumLC)/(LumHC−LumLC). DMSO treated cells are employed as High Control (HC) and 2 μM of a known BRM/BRG1 degrader standard treated cells are employed as Low Control (LC).

Row | SMILES | DC50 [1] | Dmax [1] | DC50 [2] | BRM HiBit Degradation Maximum (%) [2]
1 | Cc1ncsc1-c1ccc([C@H](C)NC(=O)[C@@H]2C[C@@H](O)CN2C(=O)C(c2cc(-c3cnc(N4CCC5(CC4)CC(c4ccc6cc(-c7ccccc7O)nnc6c4)C5)nc3)no2)C(C)C)cc1 (mixture of isomers) [Compound 65, (2S,4R)-4-hydroxy-1-(2-(3-(2-(2-(3-(2-hydroxyphenyl)cinnolin-7-yl)-7-azaspiro[3.5]nonan-7-yl)pyrimidin-5-yl)isoxazol-5-yl)-3-methylbutanoyl)-N-((S)-1-(4-(4-methylthiazol-5-yl)phenyl)ethyl)pyrrolidine-2-carboxamide] | > 0.01 µM | > 75% | < 0.01 µM | A (“A” indicates maximum degradation ≥75%)
2 | Cc1ncsc1-c1ccc([C@H](C)NC(=O)[C@@H]2C[C@@H](O)CN2C(=O)[C@@H](c2cc(N3CC4(CN(c5ccc6cc(-c7ccccc7O)nnc6c5)C4)C3)no2)C(C)C)cc1 (single isomer, unassigned) [Compound 51] | – | – | < 0.01 µM | A (“A” indicates maximum degradation ≥75%)
3 | Cc1ncsc1-c1ccc([C@H](C)NC(=O)[C@@H]2C[C@@H](O)CN2C(=O)[C@H](C2CC2)n2cc(N3CC4(CN(c5ccc6cc(-c7ccccc7O)nnc6c5)C4)C3)nn2)cc1 (single isomer, unassigned) [Compound 210] | – | – | < 0.01 µM | A (“A” indicates maximum degradation ≥75%)
4 | Cc1ncsc1-c1ccc([C@H](C)NC(=O)[C@@H]2C[C@@H](O)CN2C(=O)C(c2cc(N3CCC4(CCC(c5ccc6nnc(-c7ccccc7O)cc6c5)CC4)CC3)no2)C(C)C)cc1 (stereo in doubt) [Compound 63, (2S,4R)-4-hydroxy-1-((S)-2-(3-(9-(3-(2-hydroxyphenyl)cinnolin-6-yl)-3-azaspiro[5.5]undecan-3-yl)isoxazol-5-yl)-3-methylbutanoyl)-N-((S)-1-(4-(4-methylthiazol-5-yl)phenyl)ethyl)pyrrolidine-2-carboxamide] | < 0.01 µM | > 75% | < 0.01 µM | A (“A” indicates maximum degradation ≥75%)
5 | Cc1ncsc1-c1ccc([C@H](C)NC(=O)[C@@H]2C[C@@H](O)CN2C(=O)[C@@H](c2cc(OCCN3CC(c4ccc5nnc(-c6ccccc6O)cc5c4)C3)no2)C(C)C)cc1 [Compound 1, (2S,4R)-4-hydroxy-1-[(2R)-2-[3-(2-{3-[3-(2-hydroxyphenyl)cinnolin-6-yl]azetidin-1-yl}ethoxy)-1,2-oxazol-5-yl]-3-methylbutanoyl]-N-[(1S)-1-[4-(4-methyl-1,3-thiazol-5-yl)phenyl]ethyl]pyrrolidine-2-carboxamide] | – | < 50% | > 0.01 µM | B (“B” indicates maximum degradation ≥50%)
6 | Cc1ncsc1-c1ccc([C@H](C)NC(=O)[C@@H]2C[C@@H](O)CN2C(=O)[C@@H](c2cc(N3CCC(CN4CC(c5ccc6nnc(-c7ccccc7O)cc6c5)C4)CC3)no2)C(C)C)cc1 [Compound 2, (2S,4R)-4-hydroxy-1-((R)-2-(3-(4-((3-(3-(2-hydroxyphenyl)cinnolin-6-yl)azetidin-1-yl)methyl)piperidin-1-yl)isoxazol-5-yl)-3-methylbutanoyl)-N-((S)-1-(4-(4-methylthiazol-5-yl)phenyl)ethyl)pyrrolidine-2-carboxamide] | – | < 50% | > 0.01 µM | A (“A” indicates maximum degradation ≥75%)

Continued, in another order:

Row | DC50 [1] | Dmax [1] | DC50 [2] | SMILES | BRM HiBit Degradation Maximum (%) [2]
7 | < 0.01 µM | > 75% | < 0.01 µM | Cc1ncsc1-c1ccc([C@H](C)NC(=O)[C@@H]2C[C@@H](O)CN2C(=O)[C@@H](c2cn(-c3ccc4nnc(-c5ccccc5O)cc4c3)nn2)C(C)C)cc1 (single isomer, unassigned) [Compound 161] | A (“A” indicates maximum degradation ≥75%)
8 | < 0.01 µM | > 75% | < 0.01 µM | Cc1ncsc1-c1ccc([C@H](C)NC(=O)[C@@H]2C[C@@H](O)CN2C(=O)[C@@H](c2cc(N3CCC4(CC3)CC(Oc3ccc5nnc(-c6ccccc6O)cc5c3)C4)no2)C(C)C)cc1 (single isomer, unassigned) [Compound 185] | A (“A” indicates maximum degradation ≥75%)
9 | – | < 50% | > 0.1 µM | Cc1ncsc1-c1ccc([C@H](C)NC(=O)[C@@H]2C[C@@H](O)CN2C(=O)[C@@H](c2cc(N3CC4(CN(c5ccc6cc(-c7ccccc7O)nnc6c5)C4)C3)n(C)n2)C(C)C)cc1 (single isomer, unassigned) [Compound 194] | A (“A” indicates maximum degradation ≥75%)
10 | < 0.01 µM | > 75% | < 0.01 µM | Cc1ncsc1-c1ccc([C@H](C)NC(=O)[C@@H]2C[C@@H](O)CN2C(=O)[C@@H](c2cc(C3CC4(C3)CN(c3ccc5nnc(-c6ccccc6O)cc5c3)C4)no2)C(C)C)cc1 (single isomer, unassigned) [Compound 200] | A (“A” indicates maximum degradation ≥75%)
11 | – | < 50% | < 0.01 µM | Cc1ncsc1-c1ccc(C(C)NC(=O)C2CC(O)CN2C(=O)[C@@H](c2cc(N3CCN([C@@H]4CCN(Cc5cc6nnc(-c7ccccc7O)cc6cc5Cl)CC4(F)F)CC3)no2)C(C)C)cc1 (stereo in doubt) [Compound 215, (2R,4S)-1-((R)-2-(3-(4-((R)-1-((6-chloro-3-(2-hydroxyphenyl)cinnolin-7-yl)methyl)-3,3-difluoropiperidin-4-yl)piperazin-1-yl)isoxazol-5-yl)-3-methylbutanoyl)-4-hydroxy-N-((R)-1-(4-(4-methylthiazol-5-yl)phenyl)ethyl)pyrrolidine-2-carboxamide] | A (“A” indicates maximum degradation ≥75%)
12 | – | < 50% | > 0.01 µM | Cc1ncsc1-c1ccc(C(C)NC(=O)C2CC(O)CN2C(=O)[C@@H](c2cc(N3CCN([C@H]4CCN(Cc5cc6nnc(-c7ccccc7O)cc6cc5Cl)CC4(F)F)CC3)no2)C(C)C)cc1 (stereo in doubt) [Compound 216, (2R,4S)-1-((R)-2-(3-(4-((S)-1-((6-chloro-3-(2-hydroxyphenyl)cinnolin-7-yl)methyl)-3,3-difluoropiperidin-4-yl)piperazin-1-yl)isoxazol-5-yl)-3-methylbutanoyl)-4-hydroxy-N-((R)-1-(4-(4-methylthiazol-5-yl)phenyl)ethyl)pyrrolidine-2-carboxamide] | A (“A” indicates maximum degradation ≥75%)
13 | > 0.01 µM | > 50% | < 0.01 µM | Cc1ncsc1-c1ccc([C@H](C)NC(=O)[C@@H]2C[C@@H](O)CN2C(=O)C(F)(c2cc(N3CC4(CN(c5ccc6cc(-c7ccccc7O)nnc6c5)C4)C3)no2)C(C)C)cc1 (stereo in doubt) [Compound 221, (2S,4R)-1-((R)-2-fluoro-2-(3-(6-(3-(2-hydroxyphenyl)cinnolin-7-yl)-2,6-diazaspiro[3.3]heptan-2-yl)isoxazol-5-yl)-3-methylbutanoyl)-4-hydroxy-N-((S)-1-(4-(4-methylthiazol-5-yl)phenyl)ethyl)pyrrolidine-2-carboxamide] | A (“A” indicates maximum degradation ≥75%)
14 | – | < 50% | < 0.01 µM | Cc1ncsc1-c1ccc([C@H](C)NC(=O)[C@@H]2C[C@@H](O)CN2C(=O)C(C(C)C)n2cc(N3CC4(CN(c5ccc6cc(-c7ccccc7O)nnc6c5)C4)C3)cn2)cc1 (stereo in doubt) [Compound 257, (2S,4R)-4-hydroxy-1-((R)-2-(4-(6-(3-(2-hydroxyphenyl)cinnolin-7-yl)-2,6-diazaspiro[3.3]heptan-2-yl)-1H-pyrazol-1-yl)-3-methylbutanoyl)-N-((S)-1-(4-(4-methylthiazol-5-yl)phenyl)ethyl)pyrrolidine-2-carboxamide] | A (“A” indicates maximum degradation ≥75%)
